We go through two compounds from publication PMC8145938, “Triphenilphosphonium Analogs of Chloramphenicol as Dual-Acting Antimicrobial and Antiproliferating Agents” (Antibiotics, 2021).

A value given as a limit tells only on which side of the number the result lay.

Common to all, as to format: cell-based
Data set [1] deals with normal human fibroblasts. The data set can be described thus: cell viability of normal cells. As to conditions: submicromolar concentrations, preliminary results. The procedure: We also compared the effects of the obtained compounds on the suppression of normal cell growth.
The survival assay was performed essentially as described earlier. In short, cells were seeded into a 96-well plate, followed by treatment with increasing concentrations of the corresponding CAM-TPP derivatives for 3 days. 3-(4,5-dimethylthiazol-2-yl)-2,5-diphenyltetrazolium bromide (0.5 mg/mL MTT; Sigma-Aldrich) dissolved in media was added to each well. Following incubation for 2 h, the supernatant was carefully removed from the wells, and 100 µL of a DMSO:ethanol mix (1:1) was added to each well, followed by shaking for 10 min. The absorbance was measured at 570 nm in Bio Spec 1601, Shimadzu spectrometer. The OD570 of the DMSO solution in each well was considered to be proportional to the number of cells. The OD570 of the control (treatment without supplement) was considered to be 100%. The results were expressed as the means ± SEM. The data were analyzed using the GraphPad Prism 7 PRIZM computer software under the license of the Statistical Department (Vall’ d Hebron Hospital, Barcelona, Spain).

Data set [2] concerns Escherichia coli C600rif/pIB55-1. As to the kind of experiment: MIC determination, CHL resistant E. coli strains. From the text: (§1) Standard laboratory strains of Bacillus subtilis subs. subtilis Cohn 1872, stains BR151, and 168, Staphylococcus aureus subsp. aureus Rosenbach 1884 strains JCM 2151 and entry MC#144 (from the Microorganisms Collection of the Moscow State University), Listeria monocytogenes Pirie 1940, Mycobacterium smegmatis Lehmann and Neumann 1899 (MC#377), and Escherichia coli Castellani and Chalmers 1919, strain JW5503 (with the deletion of tolC gene), which are resistant to the chloramphenicol strains, J53rif, C600rif/pIB55-1, C600rif/pIP162-1, and C600recA naI, were used.
(§2) The MICs for CAM-Cn-TPP and Cn-TPP were determined by Mueller-Hinton broth microdilution, as recommended by CLSI in the Methods for Dilution Antimicrobial Susceptibility Tests for Bacteria that Grow Aerobically, Approved Standard, 9th ed., CLSI document M07-A9, using in-house-prepared panels. The compounds were diluted in a 96-well microtiter plate to final concentrations ranging from 0.5 to 360 μM in a 250-µL aliquot of the bacterial suspension, followed by incubation at 37 °C or 30 °C for 18 h. […] The bacterial growth was observed visually alongside OD measurements. The experiments were carried out in triplicate.

For data set [3], the system named is Escherichia coli C600recA naI. The data set can be described thus: MIC determination, CHL resistant E. coli strains. The settings on record: C600RECANAI.
Text: as §1, §2

In data set [4] the test system is Escherichia coli C600rif/pIP162-1. As to the kind of experiment: MIC determination, CHL resistant E. coli strains.
Text: as §1, §2

Data set [5] concerns Escherichia coli J53rif. The data set can be described thus: MIC determination, CHL resistant E. coli strains.
Text: as §1, §2

For orientation: MIC means the smallest concentration in the dilution series that meets the test's criterion for growth inhibition. As for `O=C(CCCCCCCCCC[P+](c1ccccc1)(c1ccccc1)c1ccccc1)N[C@H](CO)[C@H](O)c1ccc([N+](=O)[O-])cc1` [CAM-C10-TPP, (N-{[(1R,2R)-1,3-dihydroxy-1-(4-nitrophenyl)propan-2-yl]amino}-11-oxoundecyl)(triphenyl)phosphonium bromide], the “effect on normal cell growth compared with cancer cells” value in data set [1] is on record as “less affected by submicromolar concentrations of CAM-TPP derivatives than cancer cells”. Further, the minimum inhibitory concentration (MIC) in data set [2] was 90 µM; in data set [3], 107 µM; in data set [4], more than 199 µM; in data set [5] it was 110 µM.
With `O=C(N[C@H](CO)[C@H](O)c1ccc([N+](=O)[O-])cc1)C(Cl)Cl` [CHL, chloramphenicol], the MIC in data set [2], in data set [3], in data set [4] and in data set [5] was more than 396 µM throughout.
